These results are taken from patent US20190321311A1, “Cancer Treatment by Simultaneous Targeting Energy Metabolism and Intracellular pH” (Deutsches Krebsforschungszentrum, priority 2016, published 2019).

Assay [1] deals with Mouse melanoma B16F10. Briefly: Cell viability assay, CellTiter-Glo, B16F10. As to conditions: Mus musculus, B16-F10, 48 h. The protocol: (§1) Indicated cells were treated with indicated drug combinations for 48 h or as indicated in conditions imitating tumor environment—RPMI supplemented with 10% FCS and 20 mM PIPES, adjusted to pH 6.5. After treatment, cells were analyzed for cell viability: • using CellTiter-Blue® Cell Viability Assay, Promega according to manufacturer recommendations. For each treatment, the fraction (%) of viable cells are indicated. Untreated viable cells were set to 100%. Average data of 2 independent experiments are presented. Each independent experiment contained 4 biological replicates for each condition. • using CellTiter-Glo® Cell Viability Assay, Promega according manufacturer recommendations. For each treatment the fraction (%) of viable cells are indicated. Untreated viable cells were set to 100%. Each measurement represents the mean value of 4 biological replicates for each condition.

Assay [2] has as its system Lung cancer H1975. The experiment in a line: Cell viability assay, CellTiter-Glo, H1975. As to conditions: Homo sapiens, NCI-H1975, 72 h, pH 6.5, read-out: fraction (%) of viable cells. The procedure:
as §1

The test system of assay [3] is H1975 cells. Type of assay: cell-based. As to conditions: H1975 cells expressing EC-GFP, Metformin for 48 hours. The source says:
FIG. 1: Treatment with Metformin and combined preparations causes an intracellular pH drop in cancer cell lines. Intracellular pH measurements were done in cells expressing a pH sensitive variant of GFP (EC-GFP). Live cells were imaged at 405 nm and 488 nm excitation wavelengths to record control and pH-sensitive emissions, correspondingly. Eight biological replicates were done for each treatment. Error bars correspond to mean values±s.d.; P≤0.0001. a. […] Confocal microscopy of H1975 and HEK293 live cells expressing EC-GFP treated with Metformin for 48 hours. To rule out a possibility that GFP signal fading is due to degradation, after exposure to the drug, cells were transferred to media with pH 8.8 supplemented with 5 μM Nigericin for 30 minutes before re-imaging (Metformin pH 8.8 rescue). b, c. […] Intracellular pH measurements were done after cells were treated alone or in combination with Rotenone or/and Nigericin, and with Papaverine or/and Salinomycin for 27 or 48 hours in pH 6.5 buffer, as indicated.
Intracellular pH in indicated cancer cell lines and non-cancer 293T cells was measured using cell lines stabile expressing pH sensitive EC-GFP at two different excitation wave length to obtain 488 nm/405 nm ratios. […] 488/405 ratios were quantified using ImageJ (NIH) software.

Assay [4] deals with Sox4. Type of assay: cell-based. As to conditions: Metformin 72 hours.
Method: Cells were densely seeded on 6-well plates. Starting on the following day, cells were treated with indicated drug combinations for 48 h in conditions imitating tumor environment: RPMI supplemented with 10% FCS and 20 mM PIPES, adjusted to pH 6.5. For non-cancer HEK293Tcells, non modified RPMI medium supplemented with 10% FCS was used. Cells were extracted only in Triton lysis buffer (as in example 3) and analyzed in Western Blot.
Cells were treated with combined preparations (Nigericin 10 nM, Rotenone 5 nM, Papaverine HCl 1 μm; Salinomycin 10 nM) with or without addition of NAC (N-acetyl cysteine) 1 mM, DOX (Doxycycline) and Minocycline 20 μM, Trolox (soluble form of vitamin E) 100 μM.
Assay [5] relates to Sox4. Type of assay: cell-based. The note with it: non-malignant HEK293t cells, Metformin 72 hours. The protocol: (§2) For gene expression measurement, cells were seeded in 6 well plates. On the following day, cells were treated with 6 mM Metformin for 48 h in normal RPMI medium supplemented with 10% FCS. Cells were harvested using Trypsin/EDTA and divided in up to 3 aliquots. A first aliquot was used for RNA preparation using RNeasy kit (Qiagen) and subsequent quantitative reverse transcription-PCR (qRT-PCR) analysis with LC480 LightCycler (Roche). A second aliquot was extracted with Saponin buffer (0.05% Saponin, 1 mM MgCl2, 1×TBS, 2 mM ME, 1× protein inhibitor cocktail (Roche) for obtaining cytoplasmic protein fraction. This fraction was used for b-catenin protein detection. Third aliquot was extracted with Triton lysis buffer ((TBS (50 mM Tris pH7.4, 150 mM NaCl, 2.7 mM KCl), 1% Triton X-100, 2 mM β-mercaptoethanol (ME), 1 mM MgCl2, 10 mM sodium pyrophosphate, 10 mM NaF, 1× proteinase inhibitor cocktail). This aliquot was used for Sox4 and a-tubulin (control) protein detection. For second and third aliquots 20-35 μl of buffer was used for 500 000 cells. After centrifugation extracts were used for Western blot analysis.
Experiments were done as in example 3. Cells were densely seeded on 6-well plates. […] For non-cancer HEK293Tcells, non modified RPMI medium supplemented with 10% FCS was used. Cells were extracted only in Triton lysis buffer (as in example 3) and analyzed in Western Blot.

In assay [6] the test system is Wnt signaling pathway. It counts as cell-based. As to conditions: cancer cell lines (FIG. 2A), 6 mM Metformin. The procedure:
as §2
Experiment was done as in example 3. […] CHOP protein was detected in Triton lysis buffer extract.

Structures are written as SMILES. Read-outs that look alike come from different tables or passages of the source.

As for `CN(C)C(=N)N=C(N)N` [Metformin], the viability at 750 µM in assay [1] (pH 6.5, read-out: fraction (%) of viable cells, Metformin 750 μM, Monensin 0.00 nM, pH 6.5) was 80%. The viability at 1500 µM in assay [1] (pH 6.5, read-out: fraction (%) of viable cells, Metformin 1500 μM, Monensin 0.00 nM, pH 6.5) worked out at 84%. The viability at 3000 µM in assay [1] (pH 6.5, read-out: fraction (%) of viable cells, Metformin 3000 μM, Monensin 0.00 nM, pH 6.5) stood at 9%. In assay [2], the viability at 94 µM is 84%, the viability at 188 µM was 70% and the viability at 375 µM stood at 45%. Moreover, the “intracellular pH” value in assay [3] was “causes intracellular acidification”. In addition, the “expression of endogenous Sox4” value in assay [4] (DLD1 and HCT116 cells) is listed as “inhibits expression of endogenous Sox4”. For the same molecule, the “Wnt-inducible Sox4 expression” value in assay [4] (H1703 and H1299 cells, Wnt3a conditioned media 48 hours) was “inhibits Wnt-inducible Sox4”. Besides, in assay [4] (H1975 cells), the “expression of endogenous Sox4” value is on record as “inhibits expression of endogenous Sox4”. In addition, the “expression of Sox4” value in assay [5] is “has no effect on Sox4”. For the same molecule, the “wnt signaling (Axin2 mRNA, cytoplasmic b-catenin)” value in assay [6] is “wnt signaling inhibitor”.
